Target: recombinant mTOR (FLAG-tagged, residues 1362-2549) (Homo sapiens, UniProt P42345)
Assay: In vitro mTOR kinase assay (Test (a), AlphaScreen)
Type: biochemical
Details: ATP 20 μM, read-out: Test (a): IC50 versus mTOR kinase
Method: (a) In Vitro mTOR Kinase Assay
Following expression in the mammalian HEK293 cell line, expressed protein was purified using the FLAG epitope tag using standard purification techniques.
Aliquots (2 μl) of each compound dilution were placed into a well of a Greiner 384-well low volume (LV) white polystyrene plate (Greiner Bio-one).
These assay solutions were incubated for 2 hours at room temperature.
The resultant signals arising from laser light excitation at 680 nm were read using a Packard Envision instrument.
The phosphorylated biotinylated peptide that is associated with AlphaScreen Streptavidin donor beads forms a complex with the p70 S6 Kinase (T389) 1A5 Monoclonal Antibody that is associated with Alphascreen Protein A acceptor beads. Upon laser light excitation at 680 nm, the donor bead: acceptor bead complex produces a signal that can be measured. Accordingly, the presence of mTOR kinase activity results in an assay signal. In the presence of an mTOR kinase inhibitor, signal strength is reduced.
mTOR enzyme inhibition for a given test compound was expressed as an IC50 value.

Sequence of recombinant mTOR (FLAG-tagged, residues 1362-2549) (P42345 1362-2549): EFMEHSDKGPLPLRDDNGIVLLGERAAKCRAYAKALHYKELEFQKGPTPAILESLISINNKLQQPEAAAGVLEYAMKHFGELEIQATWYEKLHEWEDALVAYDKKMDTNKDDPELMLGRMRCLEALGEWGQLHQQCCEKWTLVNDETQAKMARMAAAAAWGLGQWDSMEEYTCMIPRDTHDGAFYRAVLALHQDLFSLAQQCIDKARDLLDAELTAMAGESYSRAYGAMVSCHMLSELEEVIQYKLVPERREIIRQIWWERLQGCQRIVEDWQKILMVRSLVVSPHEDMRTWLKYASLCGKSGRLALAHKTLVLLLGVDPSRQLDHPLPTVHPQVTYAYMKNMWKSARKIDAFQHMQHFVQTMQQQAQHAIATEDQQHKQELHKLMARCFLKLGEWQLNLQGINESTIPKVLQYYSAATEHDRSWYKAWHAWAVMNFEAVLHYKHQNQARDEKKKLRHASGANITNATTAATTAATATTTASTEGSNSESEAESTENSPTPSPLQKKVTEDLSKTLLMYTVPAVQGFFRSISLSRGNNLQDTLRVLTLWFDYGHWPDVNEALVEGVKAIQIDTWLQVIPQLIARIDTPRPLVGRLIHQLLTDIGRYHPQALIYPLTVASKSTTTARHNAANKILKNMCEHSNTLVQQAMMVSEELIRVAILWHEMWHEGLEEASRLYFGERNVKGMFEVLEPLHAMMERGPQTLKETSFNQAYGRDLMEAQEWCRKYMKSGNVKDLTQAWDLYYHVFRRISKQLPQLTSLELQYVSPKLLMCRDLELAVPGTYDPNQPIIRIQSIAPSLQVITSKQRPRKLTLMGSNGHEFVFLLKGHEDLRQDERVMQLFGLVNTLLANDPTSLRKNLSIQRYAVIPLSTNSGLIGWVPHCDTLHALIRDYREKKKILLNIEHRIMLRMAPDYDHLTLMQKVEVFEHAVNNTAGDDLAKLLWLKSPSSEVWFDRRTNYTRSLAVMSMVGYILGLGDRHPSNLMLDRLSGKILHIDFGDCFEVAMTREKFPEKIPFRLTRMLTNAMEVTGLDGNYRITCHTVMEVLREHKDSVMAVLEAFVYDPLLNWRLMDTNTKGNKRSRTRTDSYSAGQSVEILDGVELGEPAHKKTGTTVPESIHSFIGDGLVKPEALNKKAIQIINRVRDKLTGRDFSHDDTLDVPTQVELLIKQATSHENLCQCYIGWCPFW

| IC50 [nM] | SMILES |
| --- | --- |
| 680 | COCCN(C)C(=O)Nc1ccc(-c2nc(CS(C)(=O)=O)cc(N3CCOC[C@@H]3C)n2)cc1F [Example 4f, 3-[2-Fluoro-4-[4-[(3S)-3-methylmorpholin-4-yl]-6-(methylsulfonylmethyl)pyrimidin-2-yl]phenyl]-1-(2-methoxyethyl)-1-methyl-urea] |
| 48 | CNC(=O)Nc1ccc(-c2nc(CS(=O)(=O)c3nc(C)cs3)cc(N3CCOC[C@@H]3C)n2)cc1 [Example 33h, 3-methyl-1-[4-[4-[(3S)-3-methylmorpholin-4-yl]-6-[(4-methyl-1,3-thiazol-2-yl)sulfonylmethyl]pyrimidin-2-yl]phenyl]urea] |
| 4300 | Cc1n[nH]c(C)c1NC(=O)Nc1ccc(-c2nc(CS(C)(=O)=O)cc(N3CCOC[C@@H]3C)n2)cc1 [Example 22i, 1-(3,5-dimethyl-1H-pyrazol-4-yl)-3-[4-[4-[(3S)-3-methylmorpholin-4-yl]-6-(methylsulfonylmethyl)pyrimidin-2-yl]phenyl]urea] |
| 440 | C[C@H]1COCCN1c1cc(CS(=O)(=O)c2ccccc2)nc(-c2ccc(NC(=O)NCCN(C)C)cc2)n1 [Example 20h, 1-[4-[4-(benzenesulfonylmethyl)-6-[(3S)-3-methylmorpholin-4-yl]pyrimidin-2-yl]phenyl]-3-(2-dimethylaminoethyl)urea] |
| 300 | CC(C)CNC(=O)Nc1ccc(-c2nc(CS(C)(=O)=O)cc(N3CCOC[C@@H]3C)n2)cc1 [Example 8f, 1-[4-[4-[(3S)-3-Methylmorpholin-4-yl]-6-(methylsulfonylmethyl)pyrimidin-2-yl]phenyl]-3-(2-methylpropyl)urea] |
| 720 | CS(=O)(=O)Cc1cc(N2CCOCC2)nc(-c2ccc(NC(=O)Nc3ccc(F)c(F)c3)cc2)n1 [Example 7k, 3-(3,4-difluorophenyl)-1-[4-[4-(methylsulfonylmethyl)-6-morpholin-4-yl-pyrimidin-2-yl]phenyl]urea] |
| 1500 | Cc1cc(-c2nc(CS(C)(=O)=O)cc(N3CCOC[C@@H]3C)n2)ccc1NC(=O)Nc1ccccc1 [Example 3, 1-[2-Methyl-4-[4-[(3S)-3-methylmorpholin-4-yl]-6-(methylsulfonylmethyl)pyrimidin-2-yl]phenyl]-3-phenyl-urea] |
| 1300 | CC(C)S(=O)(=O)Cc1cc(N2CCOCC2)nc(-c2ccc(NC(=O)NC3CCN(C)CC3)cc2)n1 [Example 20o, 3-(1-methyl-4-pipendyl)-1-[4-[4-morpholin-4-yl-6-(propan-2-ylsulfonylmethyl)pyrimidin-2-yl]phenyl]urea] |
| 570 | CS(=O)(=O)Cc1cc(N2CCOCC2)nc(-c2ccc(NC(=O)NCc3ncc[nH]3)cc2)n1 [Example 8d, 3-(1H-imidazol-2-ylmethyl)-1-[4-[4-(methylsulfonylmethyl)-6-morpholin-4-yl-pyrimidin-2-yl]phenyl]urea] |
| 1600 | Cc1cccc(C)c1NC(=O)Nc1ccc(-c2nc(CS(C)(=O)=O)cc(N3CCOC[C@@H]3C)n2)cc1 [Example 22b, 1-(2,6-dimethylphenyl)-3-[4-[4-[(3S)-3-methylmorpholin-4-yl]-6-(methylsulfonylmethyl)pyrimidin-2-yl]phenyl]urea] |
| 42 | CS(=O)(=O)Cc1cc(N2CCOCC2)nc(-c2ccc(NC(=O)Nc3ccon3)cc2)n1 [Example 34a, 1-[4-[4-(methylsulfonylmethyl)-6-morpholin-4-yl-pyrimidin-2-yl]phenyl]-3-(1,2-oxazol-3-yl)urea] |
| 82 | COCCCNC(=O)Nc1ccc(-c2nc(CS(C)(=O)=O)cc(N3CCOCC3)n2)cc1 [Example 45c, 1-(3-methoxypropyl)-3-[4-[4-(methylsulfonylmethyl)-6-morpholin-4-yl-pyrimidin-2-yl]phenyl]urea] |
| 2900 | C[C@H]1COCCN1c1cc(CS(C)(=O)=O)nc(-c2ccc(N(C)C(=O)Nc3ccccc3)cc2)n1 [Example 3d, 1-Methyl-1-[4-[4-[(3S)-3-methylmorpholin-4-yl]-6-(methylsulfonylmethyl)pyrimidin-2-yl]phenyl]-3-phenyl-urea] |
| 300 | CCOCCNC(=O)Nc1ccc(-c2nc(CS(C)(=O)=O)cc(N3CCOCC3)n2)cc1 [Example 45s, 1-(2-ethoxyethyl)-3-[4-[4-(methylsulfonylmethyl)-6-morpholin-4-yl-pyrimidin-2-yl]phenyl]urea] |
| 890 | C[C@H]1COCCN1c1cc(C(C)(C)S(C)(=O)=O)nc(N2CCC(NC(=O)NC3CC3)CC2)n1 [Example 24p, 3-cyclopropyl-1-[1-[4-[(3S)-3-methylmorpholin-4-yl]-6-(2-methylsulfonylpropan-2-yl)pyrimidin-2-yl]-4-piperidyl]urea] |
| 310 | COCCNC(=O)Nc1ccc(-c2nc(N3CCOC[C@@H]3C)cc(C(C)(C)S(C)(=O)=O)n2)cc1 [Example 21k, 3-(2-methoxyethyl)-1-[4-[4-[(3S)-3-methylmorpholin-4-yl]-6-(2-methylsulfonylpropan-2-l)pyrimidin-2-yl]phenyl]urea] |

| IC50 [nM] | SMILES |
| --- | --- |
| 1000 | COCCNC(=O)Nc1ccc(-c2nc(N3CCOCC3)cc(C(C)(C)S(C)(=O)=O)n2)cc1 [Example 21e, 3-(2-methoxyethyl)-1-[4-[4-(2-methylsulfonylpropan-2-yl)-6-morpholin-4-yl-pyrimidin-2-yl]phenyl]urea] |
| 2100 | C[C@H]1COCCN1c1cc(CS(=O)(=O)CC#N)nc(-c2ccc(NC(=O)N(C)C)cc2)n1 [Example 13, 3-[4-[4-(Cyanomethylsulfonylmethyl)-6-[(3S)-3-methylmorpholin-4-yl]pyrimidin-2-yl]phenyl]-1,1-dimethyl-urea] |
| 410 | C[C@H]1COCCN1c1cc(C(C)(C)S(C)(=O)=O)nc(-c2cnc(NC(=O)Nc3cnn(C)c3)s2)n1 [Example 47b, 1-[5-[4-[(3S)-3-methylmorpholin-4-yl]-6-(2-methylsulfonylpropan-2-yl)pyrimidin-2-yl]-1,3-thiazol-2-yl]-3-(1-methylpyrazol-4-yl)urea] |
| 1900 | CCCCCNC(=O)Nc1ccc(-c2nc(CS(C)(=O)=O)cc(N3CCOCC3)n2)cc1 [Example 7j, 3-[4-[4-(methylsulfonylmethyl)-6-morpholin-4-yl-pyrimidin-2-yl]phenyl]-1-pentyl-urea] |
| 170 | CS(=O)(=O)Cc1cc(N2CCOCC2)nc(-c2ccc(NC(=O)N3CCCC(O)C3)cc2)n1 (stereo not shown) [Example 45m, 3-hydroxy-N-[4-[4-(methylsulfonylmethyl)-6-morpholin-4-yl-pyrimidin-2-yl]phenyl]piperidine-1-carboxamide] |
| 4400 | Cc1cc(CNC(=O)Nc2ccc(-c3nc(CS(C)(=O)=O)cc(N4CCOC[C@@H]4C)n3)cc2)no1 [Example 24h, 3-[4-[4-[(3S)-3-methylmorpholin-4-yl]-6-(methylsulfonylmethyl)pyrimidin-2-yl]phenyl]-1-[(5-methyl-1,2-oxazol-3-yl)methyl]urea] |
| 740 | CN1CCN(CCNC(=O)Nc2ccc(-c3nc(CS(C)(=O)=O)cc(N4CCOCC4)n3)cc2)CC1 [Example 45w, 1-[2-(4-methylpiperazin-1-yl)ethyl]-3-[4-[4-(methylsulfonylmethyl)-6-morpholin-4-yl-pyrimidin-2-yl]phenyl]urea] |
| 830 | COCCNC(=O)Nc1ccc(-c2nc(CS(C)(=O)=O)cc(N3CCOC[C@@H]3C)n2)cc1F [Example 4g, 3-[2-fluoro-4-[4-[(3S)-3-methylmorpholin-4-yl]-6-(methylsulfonylmethyl)pyrimidin-2-yl]phenyl]-1-(2-methoxyethyl)urea] |
| 22 | CNC(=O)Nc1ccc(-c2nc(CS(=O)(=O)c3ccc(NC(C)=O)cc3)cc(N3CCOC[C@@H]3C)n2)cc1 [Example 19c, N-[4-[[2-[4-(methylcarbamoylamino)phenyl]-6-[(3S)-3-methylmorpholin-4-yl]pyrimidin-4-yl]methylsulfonyl]phenyl]acetamide] |
| 600 | COCCNC(=O)Nc1ccc(-c2nc(CS(C)(=O)=O)cc(N3CCOC[C@@H]3C)n2)cc1OC [Example 4e, 1-(2-methoxyethyl)-3-[2-methoxy-4-[4-[(3S)-3-methylmorpholin-4-yl]-6-(methylsulfonylmethyl)pyrimidin-2-yl]phenyl]urea] |
| 36 | CNC(=O)Nc1ccc(-c2nc(CS(=O)(=O)C(C)C)cc(N3CCOCC3)n2)cc1 [Example 20k, 3-methyl-1-[4-[4-morpholin-4-yl-6-(propan-2-ylsulfonylmethyl)pyrimidin-2-yl]phenyl]urea] |
| 220 | C[C@H]1COCCN1c1cc(CS(C)(=O)=O)nc(-c2ccc(NC(=O)NCc3cncs3)cc2)n1 [Example 24j, 1-[4-[4-[(3S)-3-methylmorpholin-4-yl]-6-(methylsulfonylmethyl)pyrimidin-2-yl]phenyl]-3-(1,3-thiazol-5-ylmethyl)urea] |
| 2900 | C[C@H]1COCCN1c1cc(C(=O)NC2CC2)nc(-c2ccc(NC(=O)NC3CC3)cc2)n1 [Example 36a, N-cyclopropyl-2-[4-(cyclopropylcarbamoylamino)phenyl]-6-[(3S)-3-methylmorpholin-4-yl]pyrimidine-4-carboxamide] |
| 12 | Cc1cc(NC(=O)Nc2ccc(-c3nc(N4CCOC[C@@H]4C)cc(C(C)(C)S(C)(=O)=O)n3)cc2)no1 [Example 24t, 3-[4-[4-[(3S)-3-methylmorpholin-4-yl]-6-(2-methylsulfonylpropan-2-yl)pyrimidin-2-yl]phenyl]-1-(5-methyl-1,2-oxazol-3-yl)urea] |
| 120 | CC(C)CNC(=O)Nc1ccc(-c2nc(CS(C)(=O)=O)cc(N3CCOCC3)n2)cc1 [Example 45b, 1-(2-methylpropyl)-3-[4-[4-(methylsulfonylmethyl)-6-morpholin-4-yl-pyrimidin-2-yl]phenyl]urea] |
